# Test results: patent publication US20260077055A1, “COMPOSITIONS OF POLYPLEXES AND SAPONINS” (SAPREME TECHNOLOGIES B.V., priority 2022, published 2026)
# What was measured:
# [1] = test system: EGFR+ A431 cells; assay: Cell viability (MTS) after polyplex transfection of A431 cells; assay type: cell-based
# Protocol: Spectrophotometry: Concentrations were determined using either a Thermo Nanodrop 2000 spectrometer or Perkin Elmer Lambda 365 Spectrophotometer. DLS measurements: DLS measurements were performed on a Malvern Nano ZS (Malvern Instruments, U.K.), operating at 633 nm with a 173° scattering angle, at 25 or 37° C. DLS mean diameters were obtained from the intensity particle size distribution provided by Malvern Zetasizer Software. DLS histograms were obtained from the intensity particle size distributions. Zeta-potential: The zeta-potential values of the polyplexes were obtained by laser doppler anemometry (LDA), measuring the mean electrophoretic mobility (Malvern Zetasizer Nano ZS, Malvern Instruments, U.K.). Measurements were performed in 10 mM HEPES pH 7.1, 150 mM NaCl. TEM measurements: TEM measurements were performed on a JEOL JEM-1011 operated at 100 kV electron microscope, equipped with a camera S5 MegaView G2. A drop of a solution of polyplexes (0.1 mg/mL) was settled on a PELCO® TEM carbon type-B film copper grid and allowed to dry at room temperature for 1 h. Infrared Spectroscopy: FT-IR spectra were recorded on a Bruker Vertex 70v, equipped with a RockSolid interferometer, after preparing the samples (1-2 mg) as KBr pellets. Spectra were processed using OPUS 7.8 software (Bruker). NMR Spectroscopy: 1H NMR spectra were recorded on a 11.7 T Bruker DRX-500 spectrometer. Chemical shifts are reported in ppm (o units) downfield from the HOD residual solvent peak (CD3OD). Experiments were recorded acquiring 64-512 scans, with a pre-scan delay (d1) of 12 s, and an acquisition time (aq) of 4 s at 300 K. 13C NMR spectrum was recorder on a 9.39 T Varian Innova 400 spectrometer. MestReNova 14.2 software (Mestrelab Research) was used for spectra processing. Cell culture conditions and treatments: HEK293FT, A431, A2058, Neuro2A, Hepa1-6 and MDA-MB 468 were maintained in 10% FBS-supplemented DMEM medium (PAN-Biotech GmbH, or Lonza Group, Basel, Switzerland)+Pen/Strep at 37° C. with 5% CO2. […] SO1861-EMCH was conjugated into/onto these polyplexes or co-administrated at 966 or 4000 nM to the different cell lines in vitro (as indicated). For this, cells were seeded in a 96 well plate at 5.000-10.000 c/w in 100 μL/well and incubated overnight at 37° C. Before treatment, the mAb-SO1861 and polyplexes were diluted separately in DPBS (PAN-Biotech GmbH) to 10× the required final concentration. The cells received 80 μL/well fresh media, followed by 20 μL/well polyplex solution and 20 μL/well saponin solution. In particular, before K16-polyplex treatments, K16-polyplexes were formulated in 10 mM HEPES, incubated for 30 min at room temperature and then diluted with complete cell culture medium. The complete cell culture medium was exchanged against 100 μL transfection medium. For co-administration of SO1861-EMCH, the transfection medium was supplemented with 2 μg/mL (=966 nM) SO1861-EMCH. Control transfections were performed with Lipofectamine™ 3000 Transfection Reagent (Thermo Fisher Scientific) according to the manufacturer's instruction, using either […] or 100 ng plasmid and with a media change 4-5 hrs after transfection. […] After treatment, the cells were incubated for 72 hr at 37° C. before the cell viability was determined by a MTS-assay performed according to the manufacturer's instruction (CellTiter 96® AQueous One Solution Cell Proliferation Assay, Promega). […]
# [2] = test system: EGFR-A2058 cells; assay: Cell viability (MTS) after polyplex transfection of A2058 cells; assay type: cell-based; conditions: co-administered with PAMAM G5(PEG-N3)6.2 npSaporin polyplexes; 73 nM Cetuximab-SO1861 or 4 μM SO1861-EMCH; 72 h
# Protocol: Spectrophotometry: Concentrations were determined using either a Thermo Nanodrop 2000 spectrometer or Perkin Elmer Lambda 365 Spectrophotometer. DLS measurements: DLS measurements were performed on a Malvern Nano ZS (Malvern Instruments, U.K.), operating at 633 nm with a 173° scattering angle, at 25 or 37° C. DLS mean diameters were obtained from the intensity particle size distribution provided by Malvern Zetasizer Software. DLS histograms were obtained from the intensity particle size distributions. […] Infrared Spectroscopy: FT-IR spectra were recorded on a Bruker Vertex 70v, equipped with a RockSolid interferometer, after preparing the samples (1-2 mg) as KBr pellets. […] NMR Spectroscopy: 1H NMR spectra were recorded on a 11.7 T Bruker DRX-500 spectrometer. […] Experiments were recorded acquiring 64-512 scans, with a pre-scan delay (d1) of 12 s, and an acquisition time (aq) of 4 s at 300 K. 13C NMR spectrum was recorder on a 9.39 T Varian Innova 400 spectrometer. […] After treatment, the cells were incubated for 72 hr at 37° C. before the cell viability was determined by a MTS-assay performed according to the manufacturer's instruction (CellTiter 96® AQueous One Solution Cell Proliferation Assay, Promega). […]
smiles,measurement,setting,value
CC(=O)OC1C(C)OC(OC2C(C)OC(OC(=O)[C@]34CCC(C)(C)CC3C3=CCC5[C@@]6(C)CC[C@H](OC7OC(C(=O)O)C(O)C(OC8OCC(O)C(O)C8O)C7OC7OC(CO)C(O)C(O)C7O)[C@@](C)(/C=N/NC(=O)CCCCCN7C(=O)C=CC7=O)C6CC[C@@]5(C)[C@]3(C)C[C@H]4O)C(OC3OC(C)C(OC4OCC(O)C(OC5OC(CO)C(O)C(O)C5O)C4O)C(O)C3O)C2O)C(O)C1OC1OCC(O)C(O)C1O (stereo partly drawn) [SO1861-EMCH],"cell killing activity / saporin gene delivery, K16C npSaporin polyplexes","[1]; K16C alone up to about 5000 μM of plasmids (printed), SO1861-EMCH = free, co-administered with K16C-polyplexes",enhanced cell killing activity
same,cytoplasmic delivery of npSaporin / cell killing,"[1]; co-administered with PAMAM G5(PEG-N3)6.2 npSaporin polyplexes, 73 nM Cetuximab-SO1861 or 4 μM SO1861-EMCH, 72 h",strongly enhanced the cytoplasmic delivery of npSaporin
same,cytoplasmic delivery of npSaporin / cell killing,[2],strongly enhanced the cytoplasmic delivery of npSaporin
